In the NIST ThermoML archive (doi:10.1016/j.jct.2011.04.013):
± gives the expanded uncertainty stated by the source.

Assays:
[1] = Solid-liquid equilibrium temperature; conditions: 101.33 kPa; Crystal; DTA
[2] = Molar enthalpy of transition or fusion; conditions: Crystal; DSC
[3] = molar heat capacity at constant pressure; conditions: 462.02 K; 101.33 kPa; Crystal; Large sample (1 g) DSC

Structure (SMILES)	Solid-liquid equilibrium temperature [1]	Molar enthalpy of transition or fusion [2]	molar heat capacity at constant pressure [3]
COc1ccc2oc(=O)cc(C)c2c1 [6-methoxy-4-methylcoumarin]	436.13 ± 0.22 K	33.3 ± 0.72 kJ/mol	
CCOc1ccc2c(C)cc(=O)oc2c1 [7-ethoxy-4-methyl-2H-chromen-2-one]	387.52 ± 0.2 K	25.8 ± 0.73 kJ/mol	
Cc1cc(=O)oc2cc(O)ccc12 [7-hydroxy-4-methyl-2H-chromen-2-one]	462.02 ± 0.24 K	31.4 ± 0.69 kJ/mol	8.971 ± 0.18 J/K/mol
